Results published in US9718774B2, “Indole carboxamide derivatives as P2X7 receptor antagonist” (ACTELION PHARMACEUTICALS LTD, priority 2012, dated 2017).
Where a name gives a salt, the structure may show the parent alone.

Target: T1, human recombinant P2X7 receptor (Homo sapiens, UniProt Q99572)
T1 construct: expressed in transfected cells
T1 sequence (Q99572 1-595): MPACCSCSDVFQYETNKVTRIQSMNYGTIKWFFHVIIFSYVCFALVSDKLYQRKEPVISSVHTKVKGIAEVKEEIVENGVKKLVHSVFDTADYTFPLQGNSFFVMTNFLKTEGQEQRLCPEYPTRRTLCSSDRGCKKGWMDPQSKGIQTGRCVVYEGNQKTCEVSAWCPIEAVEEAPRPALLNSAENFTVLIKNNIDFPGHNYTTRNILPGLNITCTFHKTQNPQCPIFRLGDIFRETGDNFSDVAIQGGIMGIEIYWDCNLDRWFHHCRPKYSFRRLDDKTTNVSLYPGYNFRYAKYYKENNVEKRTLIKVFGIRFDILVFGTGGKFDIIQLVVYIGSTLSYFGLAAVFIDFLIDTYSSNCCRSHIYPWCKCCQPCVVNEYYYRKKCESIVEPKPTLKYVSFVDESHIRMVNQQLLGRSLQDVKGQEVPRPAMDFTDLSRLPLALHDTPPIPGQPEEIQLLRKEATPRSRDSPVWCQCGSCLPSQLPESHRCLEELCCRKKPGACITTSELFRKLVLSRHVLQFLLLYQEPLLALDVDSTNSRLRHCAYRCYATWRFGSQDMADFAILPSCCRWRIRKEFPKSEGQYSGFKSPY
Test: YO-PRO assay: P2X7 receptor antagonistic activity in HEK cells stably expressing P2X7
Type: cell-based
Settings: antagonistic activity with respect to the P2X7 receptor, read-out: IC50
Summary of the method: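 HEK cells stably transfected with human P2X7 (cloned from blood cDNA) were loaded with 0.5 μM YO-PRO-1. They were exposed to antagonist (10 concentrations, top 10 μM, 1/3 steps, duplicate) together with 250 μM ATP for 90 min, and dye uptake was read by FLIPR at ex 485/em 530. IC50 from maximum fluorescence versus concentration.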

| Structure (SMILES) | IC50 [nM] |
| --- | --- |
| CCC(CC)C(CNC(=O)c1ccc2[nH]ccc2c1Cl)c1cncnc1 (racemic) [Example 88, rac-4-Chloro-1H-indole-5-carboxylic acid (3-ethyl-2-pyrimidin-5-yl-pentyl)-amide] | 15 |
| Cc1noc(C)c1C(CNC(=O)c1ccc2[nH]ccc2c1Cl)N1CCCCC1 (racemic) [Example 54, rac-4-Chloro-1H-indole-5-carboxylic acid [2-(3,5-dimethyl-isoxazol-4-yl)-2-piperidin-1-yl-ethyl]-amide] | 1850 |
| O=C(NCC(c1cc(F)cc(F)c1)N1CCOCC1)c1ccc2[nH]ccc2c1Cl (racemic) [Example 18, rac-4-Chloro-1H-indole-5-carboxylic acid [2-(3,5-difluoro-phenyl)-2-morpholin-4-yl-ethyl]-amide] | 19 |
| Cc1ncc([C@H](CNC(=O)c2ccc3[nH]ccc3c2Cl)N2CCCCC2C)cn1 (mixture of isomers) [Example 77, 4-Chloro-1H-indole-5-carboxylic acid [(R)-2-(2-methyl-piperidin-1-yl)-2-(2-methyl-pyrimidin-5-yl)-ethyl]-amide] | 87 |
| Cc1ncc(C(CNC(=O)c2ccc3[nH]ccc3c2Cl)N2CCC(C)CC2)cn1 (racemic) [Example 76, rac-4-Chloro-1H-indole-5-carboxylic acid [2-(4-methyl-piperidin-1-yl)-2-(2-methyl-pyrimidin-5-yl)-ethyl]-amide] | 348 |
| Cc1ncc(C(CNC(=O)c2ccc3[nH]ccc3c2Cl)N2CC(C)OC(C)C2)cn1 (single isomer, unassigned) [Example 42, 4-Chloro-1H-indole-5-carboxylic acid [2-(2,6-dimethyl-morpholin-4-yl)-2-(2-methyl-pyrimidin-5-yl)-ethyl]-amide] | 36 |
| Cc1ncc(C(CNC(=O)c2ccc3[nH]ccc3c2Cl)N2CCCOCC2)cn1 (racemic) [Example 81, rac-4-Chloro-1H-indole-5-carboxylic acid [2-(2-methyl-pyrimidin-5-yl)-2-[1,4]oxazepan-4-yl-ethyl]-amide] | 26 |
| O=C(NCC(c1cncs1)N1CCCCC1)c1ccc2[nH]ccc2c1Cl (racemic) [Example 62, rac-4-Chloro-1H-indole-5-carboxylic acid (2-piperidin-1-yl-2-thiazol-5-yl-ethyl)-amide] | 48 |
| Cc1cnc(C(CNC(=O)c2ccc3[nH]ccc3c2Cl)N2CCOCC2)cn1 (racemic) [Example 63, rac-4-Chloro-1H-indole-5-carboxylic acid [2-(5-methyl-pyrazin-2-yl)-2-morpholin-4-yl-ethyl]-amide] | 257 |
| CN1CCC(C(CNC(=O)c2ccc3[nH]ccc3c2Cl)c2cccnc2)CC1 (racemic) [Example 21, rac-4-Chloro-1H-indole-5-carboxylic acid [2-(1-methyl-piperidin-4-yl)-2-pyridin-3-yl-ethyl]-amide formic acid salt] | 584 |
| O=C(NCC(c1ccccc1F)N1CCOCC1)c1ccc2[nH]ccc2c1Cl (racemic) [Example 35, rac-4-Chloro-1H-indole-5-carboxylic acid [2-(2-fluoro-phenyl)-2-morpholin-4-yl-ethyl]-amide] | 161 |
| O=C(NCC(c1ccns1)N1CCCCC1)c1ccc2[nH]ccc2c1Cl (racemic) [Example 61, rac-4-Chloro-1H-indole-5-carboxylic acid (2-isothiazol-5-yl-2-piperidin-1-yl-ethyl)-amide] | 15 |
| Cc1ncc(C(CNC(=O)c2cc(CC(C)C)c3[nH]ccc3c2Cl)N2CCOCC2)cn1 (racemic) [Example 98, rac-4-Chloro-7-isobutyl-1H-indole-5-carboxylic acid [2-(2-methyl-pyrimidin-5-yl)-2-morpholin-4-yl-ethyl]-amide] | 10 |
| O=C(NCC(c1cncs1)N1CCOCC1)c1ccc2[nH]ccc2c1Cl (racemic) [Example 64, rac-4-Chloro-1H-indole-5-carboxylic acid (2-morpholin-4-yl-2-thiazol-5-yl-ethyl)-amide] | 53 |
| CC(C)CC(CNC(=O)c1ccc2[nH]ccc2c1Cl)c1ccc(Cl)nc1 (racemic) [Example 66, rac-4-Chloro-1H-indole-5-carboxylic acid [2-(6-chloro-pyridin-3-yl)-4-methyl-pentyl]-amide] | 32 |
| CC(=O)c1cc(C(=O)NCC(c2cnc(C)nc2)N2CCOCC2)c(Cl)c2cc[nH]c12 (racemic) [Example 102, rac-7-Acetyl-4-chloro-1H-indole-5-carboxylic acid [2-(2-methyl-pyrimidin-5-yl)-2-morpholin-4-yl-ethyl]-amide] | 33 |
